Laboratory results reported in ChEMBL document CHEMBL1201862, “PubChem BioAssay data set” (2004).
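Interpolation was linear, between the two tested concentrations surrounding the appropriate level; five concentrations were tested over 48 hours in 96-well plates. GI50: concentration for 50% inhibition of growth.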 Activity calls are given as the source filed them. Rule as the data show it: active = GI50 up to about 1.1 µM and inactive = higher.

Assays:
Test in all cases: inhibition of tumour cell growth, NCI panel, 48 h
[1] = system: OVCAR-4
[2] = system: SF-268
[3] = system: SK-MEL-5
[4] = system: IGROV-1
[5] = system: NCI-H226
[6] = system: SK-OV-3
[7] = system: Malme-3M
[8] = system: LOX IMVI
[9] = system: SK-MEL-28
[10] = system: HOP-92
[11] = system: SK-MEL-2
[12] = system: RXF 393
[13] = system: HOP-62
[14] = system: SW-620
[15] = system: SF-539
[16] = system: NCI-H460
[17] = system: HCT-116
[18] = system: SR
[19] = system: TK-10
[20] = system: K562

Measured: GI50

COc1ccc2[nH]c3c(C)c4c(c(C)c3c2c1)CN(C)CC4
inactive: [1] 19 µM | [2] 18.9 µM | [3] 17.5 µM | [4] 16.6 µM | [5] 15.8 µM | [6] 16.3 µM | [7] 19.8 µM | [8] 13.7 µM | [9] 14.2 µM | [10] 16.9 µM | [11] 17.2 µM | [12] 19.3 µM | [13] 17.3 µM | [14] 4.21 µM | [15] 16 µM | [16] 11.6 µM | [17] 3.17 µM | [18] 23.4 µM | [19] 23.4 µM | [20] 4.59 µM

COC(=O)c1oc([N+](=O)[O-])c(Cl)c1Cl
inactive: [1] 9.31 µM | [2] 8.28 µM | [3] 9.08 µM | [4] 7.67 µM | [5] 21.3 µM | [6] 19 µM | [7] 7.43 µM | [8] 6.05 µM | [9] 8.53 µM | [10] 20 µM | [11] 12.2 µM | [12] 12.7 µM | [13] 8.71 µM | [14] 4.07 µM | [15] 6.01 µM | [16] 17.2 µM | [17] 6.24 µM | [18] 2.08 µM | [19] 7.36 µM | [20] 2.56 µM

CC#CC#C/C=C1\C=CC2(OC=CC2O)O1 (stereo not given)
inactive: [1] 8.26 µM | [2] > 23.3 µM | [3] > 12.9 µM | [4] > 16.7 µM | [5] > 15.8 µM | [6] > 23.3 µM | [7] 10.4 µM | [8] 11.9 µM | [9] 13.3 µM | [10] 7.13 µM | [11] > 17.8 µM | [12] 8.55 µM | [13] > 23.3 µM | [14] 8.28 µM | [15] > 14.9 µM | [16] > 23.3 µM | [17] 8.04 µM | [18] > 12.7 µM | [19] > 23.3 µM | [20] 11.6 µM

N[C@H](COCc1ccccc1)c1ccccc1
inactive: [1] 20.7 µM | [2] 42.1 µM | [3] 20.1 µM | [4] 39 µM | [5] 27.7 µM | [6] 29.6 µM | [7] 33.4 µM | [8] 29.3 µM | [9] 59.8 µM | [10] 23.1 µM | [11] 21.1 µM | [12] 27.3 µM | [13] > 46.5 µM | [14] 28.2 µM | [15] 27.9 µM | [16] 22.8 µM | [17] 22.5 µM | [18] 23.3 µM | [19] 32.1 µM | [20] 28 µM

SCc1ccc(-c2ccc(CS)cc2)cc1
inactive: [1] 6.38 µM | [2] 3.33 µM | [3] 15.6 µM | [4] 13.5 µM | [5] 18.4 µM | [6] 17.6 µM | [7] 16.9 µM | [8] 4 µM | [9] 9.55 µM | [10] 17.9 µM | [11] 19.7 µM | [12] 16.8 µM | [13] 6.75 µM | [14] 22.2 µM | [15] 18 µM | [16] 10.4 µM | [17] 7.55 µM | [18] 2.42 µM | [19] 24.3 µM | [20] 4.07 µM

CCS(CC)(CC)CC1CCCC2=CCC(P(=O)(c3ccccc3)c3ccccc3)CC21 (stereo not given)
inactive: [1] 10.1 µM | [2] 11.4 µM | [3] 13.2 µM | [4] 9.57 µM | [5] 18.7 µM | [6] 12.7 µM | [7] 18.4 µM | [8] 14.7 µM | [9] 14.4 µM | [10] 2.5 µM | [11] 14.2 µM | [12] 9.66 µM | [13] 16.3 µM | [14] 13.9 µM | [15] 13.3 µM | [16] 10.3 µM | [17] 7.36 µM | [18] 6.27 µM | [19] 12.7 µM | [20] 4.09 µM

COC(=O)C(=O)C(C(=O)OC)C(=O)C(=O)Nc1c(Cl)cc([N+](=O)[O-])cc1Cl (stereo not given)
inactive: [1] 80.9 µM | [2] 40.1 µM | [3] > 100 µM | [4] 44.9 µM | [5] > 100 µM | [6] > 100 µM | [7] > 100 µM | [8] 83 µM | [9] > 100 µM | [10] > 100 µM | [11] > 100 µM | [12] 81.3 µM | [13] 37.1 µM | [14] > 100 µM | [15] > 100 µM | [16] > 100 µM | [17] > 100 µM | [18] > 10 µM | [19] 62.4 µM | [20] > 100 µM
